Key:
[1] = biological target: T1, RCAR1-HAB1; assay: In vitro phosphatase assay, HAB1 with RCAR1; format: biochemical, Arabidopsis thaliana; details: 100 nM HAB1, 200 nM RCAR1
T1 construct: 6xHis (N); made in house; host or cells: Escherichia coli BL21
Procedure: (§1) Expression, purification, and analysis of RCAR and PP2C proteins were performed essentially as described ([Ruschhaupt et al., 2019]). Briefly, the ABA receptors RCAR1, RACR8, and RCAR11 were expressed with an aminoterminal histidine tag using the pSEVA431_LII_6xHIS::RCAR1/RCAR8/RCAR11. ABA coreceptors were expressed as histidine-tagged fusions with the maltose-binding protein using the pSEVA431_LII_6xHIS::MBP::ABI2/HAB1. All constructs were transformed and expressed in Escherichia coli strain BL21 and purified to homogeneity according to supplier’s instruction (GE Healthcare, Chicago, USA). The receptor assay was performed with 100 nM PP2C and a two-fold molar excess of RCAR. Values are means ± SD of three replicates. […] The maximum inhibition was set to 100% in the figures. The phosphatase activity was measured using 4-methylumbelliferyl-phosphate as a substrate ([Meinhard and Grill, 2001]). The increase in fluorescence was recorded over 25 min with excitation and emission wavelengths at 360 and 460 nm, respectively, using a Synergy 2 plate reader (Bio-Tec, Winooski, USA).

[2] = biological target: RCAR8-ABI2; assay: In vitro phosphatase assay, ABI2 with RCAR8; format: biochemical, Arabidopsis thaliana; details: 100 nM ABI2, 200 nM RCAR8
Procedure: as §1

[3] = system: Arabidopsis plants; assay: Foliar administration and thermal imaging of leaf temperature (transpiration), Arabidopsis; format: in vivo, Arabidopsis thaliana
[4] = system: RCAR11-ABI2; assay: Yeast ABA signal pathway LUC reporter, RCAR11-ABI2; format: cell-based, Arabidopsis thaliana
Procedure: (§2) The yeast cultivation and the life luciferase assay were performed as described ([Ruschhaupt et al., 2019]). Briefly, the reporter yeast expressing an ABA-dependent luciferase gene (LUC) was transformed with different combinations of ABA signaling components as indicated. Golden gate cloning ([Binder et al., 2014]) was used to construct pYEAST_LII_5‐6_CEN_URA vector with TDH3 promoter and TDH1 terminator (tTDH1), pYEAST_LII_1‐2_CEN_LEU vector with GK1 promoter and tTDH1, and pYEAST_LII_3‐4_CEN_TRP with the GAL1 promoter (pGAL1) and tTDH1 to express RCARs, PP2Cs, and OST1 (SnRK2.6), respectively ([Ruschhaupt et al., 2019]). The expression of ABF2 in yeast relies on a modified pGREG503 vector, in which pGAL1 ([Jansen et al., 2005]) was replaced by the ADH1 promoter.
(§3) Colonies of freshly transformed cells were inoculated in 0.5 mL supplemented synthetic dextrose (SD) medium and incubated at 30°C in a gyratory shaker (Thermoshake-THO500, Gerhardt, Königswinter, Germany) at 200 rpm for 16-18 h. After overnight growth, the cells were harvested and washed in SD medium followed by inoculation in SD medium containing 2% galactose for induction of SnRK2 kinases under the control of the GAL1 promoter and supplementation with ligands at indicated concentrations, to an OD600 of 0.2 in flat-bottom 96-well plates (CytoOne, Starlab, Hamburg, Germany). Yeast cultures were incubated at 30°C and 200 rpm for 16-18 h before determination of LUC activity and cell density. Light emission of yeasts was detected in a HIDEX plate luminometer (HIDEX, Turku, Finland) after injection of 100 µL freshly prepared luciferin substrate (1 mM D-luciferin, Promega) provided in 100 mM citric acid, pH 3 ([Leskinen et al., 2003]) for 5 s and was corrected for background. The LUC activity was normalized to the cell density (OD600) measured in 96-well flat plates (Sarstedt, Nümbrecht, Germany). LUC activity is given as the ratio of light emission to OD600 in counts per second.

[5] = system: T2, RCAR8/PYL5-ABI2; assay: Yeast ABA signal pathway LUC reporter, RCAR8-ABI2; format: cell-based, Arabidopsis thaliana
T2 construct: expressed in transfected cells; host or cells: yeast (LUC reporter strain)
Procedure: as §2, §3

[6] = system: RCAR1/PYL9-ABI2; assay: Yeast ABA signal pathway LUC reporter, RCAR1-ABI2; format: cell-based, Arabidopsis thaliana
Procedure: as §2, with “The expression of ABF2 in yeast relies on a modified pGREG503 vector, in which pGAL1 ([Jansen et al., 2005]) was replaced by the ADH1 promoter.” left out
Colonies of freshly transformed cells were inoculated in 0.5 mL supplemented synthetic dextrose (SD) medium and incubated at 30°C in a gyratory shaker (Thermoshake-THO500, Gerhardt, Königswinter, Germany) at 200 rpm for 16-18 h. […] Light emission of yeasts was detected in a HIDEX plate luminometer (HIDEX, Turku, Finland) after injection of 100 µL freshly prepared luciferin substrate (1 mM D-luciferin, Promega) provided in 100 mM citric acid, pH 3 ([Leskinen et al., 2003]) for 5 s and was corrected for background. The LUC activity was normalized to the cell density (OD600) measured in 96-well flat plates (Sarstedt, Nümbrecht, Germany). […]

IC50 with HAB1 compared to the ABI2 results [1]: lower IC50 value
IC50 relative to ABA (fold higher) [2]: ~30 fold
SMILES: CCC(=C/C(=O)O)/C=C/C(O)(C(C)C)C1(C#N)CC1 (stereo not shown) [CCP2]
Efficiency in minimizing transpiration compared to ABA ([3]; foliar application): by an order of magnitude more efficient than ABA
ABA concentration achieving a temperature increase similar to 10 µM of the CCP ([3]; one day after application): about 100 µM
Activity and persistence of minimized transpiration compared to ABA ([3]; single application 100 µM, recorded for 19 days): more active and persistent than ABA
ABA-agonistic activity in yeast LUC reporter ([4]; 30 µM, not esterase-treated): revealed an ABA-agonistic activity
Activation of the ABA response compared to ABA ([4]; dose-dependent, 0.1-30 µM): comparable activity to ABA
Reporter induction relative to ABA ([5]; 1 µM exogenous ligand): no significant reporter regulation
Higher level required for induction value comparable to 1 µM ABA ([5]; yeast, RCAR8-ABI2): > 30 x
Higher exogenous concentration required for reporter expression comparable to 1 µM ABA [6]: > 30 x

Reference: article PMC9894685, “Abscisic acid agonists suitable for optimizing plant water use” (Frontiers in Plant Science, 2023)
